# According to publication PMC9335283 (Frontiers in Microbiology, 2022):
# Like-named read-outs stand apart in the source and are kept apart here. Where a SMILES comes first, the peptide text is derived from it.
# What was measured:
# [1] = tested on: S. aureus; assay: microbe, parasite or virus in culture; type: cell-based; settings: Staphylococcus aureus, 18 h
# Experimental: (§1) S. aureus and S. enteritidis isolates were obtained from laboratory clinical isolates, and avian pathogenic E. coli was kindly provided by Professor Qingke Kong (College of Veterinary Medicine, Southwest University). […] Bacteria were cultured at 37°C for 18 h in MHB or LB agar plates.
# (§2) Briefly, bacteria were maintained in MHB medium at 37°C and grown to mid-logarithmic growth phase before being tested. […] After incubation, minimum inhibitory concentration (MIC) was determined by the observation of turbidity, and minimum bactericidal concentration (MBC) was determined by colony counting. […] After overnight culture at 37°C, survival bacteria were counted.
# [2] = tested on: E. coli; assay: microbe, parasite or virus in culture; type: cell-based; settings: Escherichia coli, 18 h
# Experimental: as §1, §2
# [3] = tested on: S. enteritidis; assay: microbe, parasite or virus in culture; type: cell-based; settings: Salmonella enterica, MHB, 18 h, 37°C, triplicate; for MBC: colony counting; for MIC: turbidity
# Text: S. aureus and S. enteritidis isolates were obtained from laboratory clinical isolates, and avian pathogenic E. coli was kindly provided by Professor Qingke Kong (College of Veterinary Medicine, Southwest University). Mueller–Hinton broth (MHB; Beijing Land Bridge Technology Co., Ltd., China) was used as bacterial growth media for antimicrobial activity assays, and Luria–Bertani (LB; Qingdao Hope Bio-Technology Co., Ltd., China) agar plates were used for the colony-counting assay. Bacteria were cultured at 37°C for 18 h in MHB or LB agar plates.
# Antimicrobial activity of AMPs and antibiotics was performed by the broth microdilution assay as reported previously (Wiegand et al., [2008]). Briefly, bacteria were maintained in MHB medium at 37°C and grown to mid-logarithmic growth phase before being tested. Then, 50 μl of peptides (0–80 μM) and antibiotics (0–40,960 μM) with triplicate were mixed with an equal volume of bacterial suspension (2 × 10^6 CFU/ml) in 96-well plates and incubated for 18 h at 37°C. After incubation, minimum inhibitory concentration (MIC) was determined by the observation of turbidity, and minimum bactericidal concentration (MBC) was determined by colony counting. […] After overnight culture at 37°C, survival bacteria were counted.
# [4] = tested on: red blood cells of mice; assay: Hemolytic activity assay; type: cell-based
# Experimental: Murine erythrocytes and peritoneal macrophages were obtained from wild-type (WT) C57BL/6 mice (Chongqing Academy of Chinese Material Medical, China). Briefly, erythrocytes were obtained by collecting blood from the tail vein. […] The hemolytic activities of AMPs and antibiotics were determined as previously described (Song et al., [2020]). In brief, whole mice blood was centrifuged at 1,500 rpm for 5 min at room temperature and then washed three times with phosphate-buffered saline (PBS) to obtain red blood cells (RBCs). Subsequently, 2% RBCs in PBS were prepared. Then, aliquots of 100 μl RBCs were mixed with 100 μl tested compounds in PBS in polypropylene 96-well microtiter plates and incubated for 1 h at 37°C. After incubation, the plate was centrifuged for 5 min at 1,500 rpm and 100 μl supernatant was transferred to a new 96-well plate to determine the absorbance at 570 nm. RBCs in PBS served as negative control while RBCs treated with 1% Triton X-100 in PBS served as a positive control. The percent of hemolysis (%) was calculated using the following formula Hemolysise (%)=(OD570nm of treated sample-OD570nm of negative control)/(OD570nm of positive control-OD570nm of negative control)×100%
# [5] = tested on: PK-15 cells; assay: Cytotoxicity, WST-1 assay; type: cell-based
# Experimental: Cells were seeded at a density of 1 × 10^5 cells/well in 48-well plates and cultured overnight before being used for assays described below. For cytotoxicity assay, mice peritoneal macrophages and PK-15 cells were prepared in a 48-well plate as described above and incubated with or without tested compounds for 2 h at 37°C with CO2. After 2 h incubation, cells were washed with a cell culture medium twice and continued to culture for 22 or 46 h. After 24 and 48 h incubation, 150 μl of 10% WST-1 reagent was added according to the protocols of the manufacturer. After 20 min incubation, absorbance was measured at 450 nm with a microplate reader (Bio-Rad, Japan) and was corrected for absorbance at 630 nm. Untreated cells were set as a control. The percent of cell viability (%) was calculated using the following formula: Cell viability (%) =OD450nm of treated sample/OD450nm of control×100%
# [6] = tested on: S. enteritidis; assay: Time-killing curve assay; settings: at sub-MBC (lowest concentrations with synergy), followed to 180 min
# Experimental: (§3) The bacterial suspension was prepared as described above. […] After overnight culture, colony counting was performed.
# [7] = tested on: E. coli; assay: Motility assay on semisolid agar; type: cell-based, Escherichia coli; settings: alone at 1/4 MIC, 18 h
# [8] = tested on: E. coli; type: cell-based, Escherichia coli
# Experimental: Drug resistance induction of E. coli was performed as previously reported. […] Bacteria from the highest concentration of drug combination were regrown, and MIC of erythromycin was measured, and then bacteria were treated again with the drug combination. The change in MIC was described by normalizing the MIC of the n generation to the MIC of first generation.
# [9] = tested on: S. aureus; assay: Time-killing curve assay; type: cell-based, Staphylococcus aureus; settings: at sub-MBC (lowest concentrations with synergy), followed to 180 min
# Experimental: as §3
# [10] = tested on: E. coli; assay: SEM analysis of bacterial morphology; type: cell-based, Escherichia coli; settings: 1/16 MBC of each agent, 6 h, 37°C, 1 × 10^8 CFU/ml
# Experimental: After incubation, bacterial suspension was centrifuged and washed with PBS three times. Then, bacterial pellets were fixed with 1.5 ml of 2.5% glutaraldehyde in PBS at 4°C overnight. Finally, samples were sent to the Lilai biomedicine experiment center (Sichuan, China) for SEM analysis.
# [11] = tested on: E. coli; assay: Time-killing curve assay; type: cell-based, Escherichia coli; settings: at sub-MBC (lowest concentrations with synergy), followed to 180 min
# Experimental: as §3
SMILES,MBC [1] [µM],MIC [1] [µM],MBC [2] [µM],MIC [2] [µM],MBC [3] [µM],MIC [3] [µM],"hemolysis ([4]; red cells of mouse, 1 h) [%]",other results
"CC1(C)S[C@@H]2[C@H](NC(=O)[C@H](N)c3ccccc3)C(=O)N2[C@H]1C(=O)O [Ampicillin, ampicillin]",640,80,160,160,> 5120,5120,–,–
CC[C@H](C)[C@H](NC(=O)CNC(=O)[C@H](C)NC(=O)[C@H](C)NC(=O)[C@@H](NC(=O)[C@@H](NC(=O)[C@H](CC(N)=O)NC(=O)[C@@H](NC(=O)[C@H](C)NC(=O)[C@@H](NC(=O)[C@@H]1CCCN1C(=O)[C@@H](NC(=O)[C@H](CC(C)C)NC(=O)[C@@H]1CCCN1C(=O)[C@H](Cc1c[nH]c2ccccc12)NC(=O)[C@H](Cc1ccccc1)NC(=O)[C@H](CCCNC(=N)N)NC(=O)[C@H](CCCCN)NC(=O)[C@@H](NC(=O)[C@@H](N)CCCNC(=N)N)C(C)C)C(C)C)C(C)C)[C@@H](C)CC)[C@@H](C)O)C(C)C)C(=O)N[C@@H](CC(N)=O)C(=O)N[C@@H](CC(C)C)C(=O)N[C@@H](Cc1ccc(O)cc1)C(=O)N[C@@H](CCCCN)C(=O)N[C@@H](C)C(=O)N[C@H](C(=O)N[C@@H](CCCNC(=N)N)C(=O)N[C@@H](CCCNC(=N)N)C(=O)N[C@@H](CCCCN)C(=O)O)[C@@H](C)CC [CATH-3] (H-RVKRFWPLVPVAINTVAAGINLYKAIRRK-OH),–,–,–,–,–,–,< 20,toxicity to PK-15 cells [5]: did not show toxicity
"CC[C@H]1OC(=O)[C@H](C)[C@@H](O[C@H]2C[C@@](C)(OC)[C@@H](O)[C@H](C)O2)[C@H](C)[C@@H](O[C@@H]2O[C@H](C)C[C@H](N(C)C)[C@H]2O)[C@](C)(O)C[C@@H](C)C(=O)[C@H](C)[C@@H](O)[C@]1(C)O [Erythromycin, erythromycin]",> 5120,5120,> 5120,40,> 5120,80,–,"time to kill all bacteria [6]: > 180 min; effect on bacterial migration distance [7]: did not affect bacterial migration distance; hemolysis [4]: > 95%; cell viability [5]: < 30%; MIC of erythromycin increase [8]: 16 fold; MIC increase ([8]; […], 14th generation, relative to first generation): 2 fold; time to kill all bacteria [9]: > 180 min; E. coli cellular morphology by SEM [10]: induced the formation of micelles; time to kill all bacteria [11]: > 180 min"
"CNC(C)C1CCC(N)C(OC2C(N)CC(N)C(OC3OCC(C)(O)C(NC)C3O)C2O)O1 (centres unmarked) [Gentamicin, gentamicin]",40,20,2.5,1.25,5,2.5,–,–
CC[C@H](C)[C@H](NC(=O)[C@H](CCCCN)NC(=O)[C@H](CCCCN)NC(=O)[C@H](CC(C)C)NC(=O)[C@H](CCCNC(=N)N)NC(=O)[C@H](CCCCN)NC(=O)[C@H](CCCNC(=N)N)NC(=O)[C@@H](NC(=O)[C@H](CCCCN)NC(=O)[C@H](CCCCN)NC(=O)[C@H](CCCNC(=N)N)NC(=O)[C@H](CC(C)C)NC(=O)[C@H](CCCNC(=N)N)NC(=O)[C@H](CCCNC(=N)N)NC(=O)[C@H](Cc1ccccc1)NC(=O)[C@H](CCCNC(=N)N)NC(=O)CN)[C@@H](C)O)C(=O)NCC(=O)N[C@@H](CCCCN)C(=O)N[C@H](C(=O)N[C@@H](CC(C)C)C(=O)N[C@@H](CCCCN)C(=O)N[C@@H](Cc1c[nH]c2ccccc12)C(=O)N[C@H](C(=O)N1CCC[C@H]1C(=O)N1CCC[C@H]1C(=O)N[C@H](C(=O)N[C@H](C(=O)NCC(=O)N[C@@H](CO)C(=O)N[C@H](C(=O)N1CCC[C@H]1C(=O)N[C@@H](CC(C)C)C(=O)NCC(=O)N[C@@H](CS)C(=O)NCC(=O)O)[C@@H](C)CC)C(C)C)[C@@H](C)CC)[C@@H](C)CC)C(C)C [PMAP-36] (H-GRFRRLRKKTRKRLKKIGKVLKWIPPIVGSIPLGCG-OH),–,–,–,–,–,–,< 20,cell viability ([5]; 2 h): < 30%
"CN(C)[C@@H]1C(O)=C(C(N)=O)C(=O)[C@@]2(O)C(O)=C3C(=O)c4c(O)cccc4[C@@](C)(O)[C@H]3C[C@@H]12 [Tetracycline, tetracycline]",40,–,10,–,640,40,–,–
